This note sets out measurements from US12180187B2, “1-phenyl-5-azinylpyrazolyl-3-oxyalkyl acids and their use for controlling unwanted plant growth” (BAYER AKTIENGESELLSCHAFT, priority 2019, dated 2024).

The subject of one assay is LOLRI. The experiment in a line: Pre-emergence action at 320 g/ha against LOLRI. Format: in vivo, Lolium rigidum. As to conditions: visual scoring after about 3 weeks vs untreated controls. The essentials:
(§1)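 Weed seeds sown in pots and covered with soil; compounds formulated as WP or EC were sprayed onto the soil surface as aqueous suspension or emulsion with 0.5% additive at 600 l/ha water. Pots kept in greenhouse; activity scored visually after about 3 weeks versus untreated controls (100% = plants dead, 0% = like control).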

Another assay concerns VERPE. In words: Pre-emergence action at 320 g/ha against VERPE. It is filed as in vivo, Veronica persica. As to conditions: visual scoring after about 3 weeks vs untreated controls. The method in brief: as §1
The subject of another assay is MATIN. In words: Pre-emergence action at 320 g/ha against MATIN. Format: in vivo, Tripleurospermum inodorum (Matricaria inodora). As to conditions: visual scoring after about 3 weeks vs untreated controls. The method in brief:
as §1

Assay [1] deals with ALOMY. The experiment in a line: Pre-emergence action at 320 g/ha against ALOMY. It is filed as in vivo, Alopecurus myosuroides. As to conditions: scored visually after about 3 weeks vs untreated controls (100% = plants have died). The essentials:
as §1

Another assay deals with ECHGC. The experiment in a line: Pre-emergence action at 320 g/ha against ECHGC. It is filed as in vivo, Echinochloa crus-galli. As to conditions: visual scoring after about 3 weeks vs untreated controls. The essentials:
as §1

Assay [2] concerns AVEFA. The experiment in a line: Pre-emergence action at 320 g/ha against AVEFA. It is filed as in vivo. As to conditions: visual scoring after about 3 weeks vs untreated controls. The method in brief:
as §1

Assay [3] has as its system POLCO. The experiment in a line: Pre-emergence action at 320 g/ha against POLCO. It is filed as in vivo, Fallopia convolvulus (Polygonum convolvulus). As to conditions: visual scoring after about 3 weeks vs untreated controls. The essentials:
as §1

A further assay relates to ECHCG. In words: Post-emergence action at 320 g/ha against ECHCG. It is filed as in vivo, Echinochloa crus-galli. As to conditions: dosage 320 g/ha, visual rating about 3 weeks after treatment vs untreated controls (100% = plants died). The method in brief: (§2)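 Greenhouse-grown plants sprayed post-emergence at the one-leaf stage, 2 to 3 weeks after sowing, with WP or EC formulations plus 0.5% additive at 600 l/ha water, at 320 g/ha. Activity rated visually after about 3 weeks versus untreated controls (100% = plants died, 0% = like control).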

The subject of assay [4] is VIOTR. In words: Post-emergence action at 320 g/ha against VIOTR. As to conditions: visual rating about 3 weeks after treatment vs untreated controls. Format: in vivo, Viola tricolor. The method in brief:
as §2

The test system of assay [5] is HORMU. In words: Pre-emergence action at 320 g/ha against HORMU. Format: in vivo, Hordeum murinum. As to conditions: greenhouse, scored visually after about 3 weeks vs untreated controls, 100% = plants have died, 0% = like control plants. The text has this: (§3) b) Seeds of monocotyledonous and dicotyledonous weed plants and crop plants are placed in plastic or organic planting pots and covered with soil. The compounds of the invention, formulated in the form of wettable powders (WP) or as emulsion concentrates (EC), are then applied onto the surface of the covering soil as aqueous suspension or emulsion with addition of 0.5% additive at a water application rate of 600 l/ha (converted). After the treatment, the pots are placed in a greenhouse and kept under good growth conditions for the trial plants. After about 3 weeks, the effect of the preparations is scored visually in comparison with untreated controls as percentages. For example, 100% activity=the plants have died, 0% activity=like control plants. Tables 13 to 26 below show the effects of selected compounds of the general formula (I) on various harmful plants and at an application rate corresponding to 320 g/ha, which were obtained by the experimental procedure mentioned above.

Assay [6] deals with PHBPU. In words: Pre-emergence action at 320 g/ha against PHBPU. It is filed as in vivo. As to conditions: visual scoring after about 3 weeks vs untreated controls. The essentials: as §1
Assay [7] concerns DIGSA. The experiment in a line: Post-emergence action at 320 g/ha against DIGSA. It is filed as in vivo, Digitaria sanguinalis. As to conditions: dosage 320 g/ha, visual rating about 3 weeks after treatment vs untreated controls (100% = plants died). The essentials: as §2
The subject of a further assay is ABUTH. The experiment in a line: Post-emergence action at 320 g/ha against ABUTH. Format: in vivo, Abutilon theophrasti. As to conditions: visual rating about 3 weeks after treatment vs untreated controls. An excerpt: (§4) Accordingly, the compounds of the invention have good herbicidal action against a broad spectrum of weed grasses and broad-leaved weeds and are therefore suitable for controlling unwanted vegetation by the post-emergence method. • b) Seeds of monocotyledonous and dicotyledonous weeds and crop plants are placed in sandy loam in plastic or organic planting pots, covered with soil and cultivated in a greenhouse under controlled growth conditions. 2 to 3 weeks after sowing, the test plants are treated at the one-leaf stage. The compounds of the invention, formulated in the form of wettable powders (WP) or as emulsion concentrates (EC), are then sprayed onto the green parts of the plants as aqueous suspension or emulsion with addition of 0.5% additive at a water application rate of 600 l/ha (converted). After the test plants have been kept in the greenhouse under optimum growth conditions for about 3 weeks, the activity of the preparations is rated visually in comparison to untreated controls. For example, 100% activity=the plants have died, 0% activity=like control plants. Tables 39 to 49 below show the effects of selected compounds of the general formula (I) according to Tables 1 and 2 on various harmful plants and at an application rate corresponding to 320 g/ha, which were obtained by the experimental procedure mentioned above.

Assay [8] concerns VIOTR. The experiment in a line: Pre-emergence action at 320 g/ha against VIOTR. It is filed as in vivo, Viola tricolor. As to conditions: dosage 320 g/ha. The method in brief: as §1
Assay [9] concerns POLCO. The experiment in a line: Post-emergence action at 320 g/ha against POLCO. Format: in vivo, Fallopia convolvulus (Polygonum convolvulus). As to conditions: visual rating about 3 weeks after treatment vs untreated controls. The method in brief: as §2
The next assay concerns AMARE. The experiment in a line: Pre-emergence action at 320 g/ha against AMARE. It is filed as in vivo, Amaranthus retroflexus. As to conditions: visual scoring after about 3 weeks vs untreated controls. The essentials:
as §1

Assay [10] concerns SETVI. In words: Post-emergence action at 320 g/ha against SETVI. It is filed as in vivo, Setaria viridis. As to conditions: visual rating about 3 weeks after treatment vs untreated controls. The method in brief: as §2
Assay [11] deals with ALOMY. In words: Post-emergence action against ALOMY, 320 g/ha. It is filed as in vivo, Alopecurus myosuroides. As to conditions: dosage 320 g/ha, visual rating about 3 weeks after treatment vs untreated controls (100% = plants died). The essentials: as §2
The test system of assay [12] is HORMU. In words: Post-emergence action at 320 g/ha against HORMU. As to conditions: visual rating about 3 weeks after treatment vs untreated controls. Format: in vivo, Hordeum murinum.
From the text: as §4

Assay [13] has as its system AVEFA. In words: Post-emergence action at 320 g/ha against AVEFA. It is filed as in vivo. As to conditions: visual rating about 3 weeks after treatment vs untreated controls. The essentials:
as §2

The next assay concerns STEME. The experiment in a line: Pre-emergence action at 320 g/ha against STEME. As to conditions: greenhouse, scored visually after about 3 weeks vs untreated controls, 100% = plants have died, 0% = like control plants. It is filed as in vivo, Stellaria media.
From the text: as §3

The test system of assay [14] is SETVI. In words: Pre-emergence action at 320 g/ha against SETVI. It is filed as in vivo, Setaria viridis. As to conditions: visual scoring after about 3 weeks vs untreated controls. The method in brief:
as §1

Assay [15] concerns DIGSA. The experiment in a line: Pre-emergence action at 320 g/ha against DIGSA. It is filed as in vivo, Digitaria sanguinalis. As to conditions: visual scoring after about 3 weeks vs untreated controls. The essentials: as §1
In assay [16] the test system is PHBPU. In words: Post-emergence action at 320 g/ha against PHBPU. As to conditions: visual rating about 3 weeks after treatment vs untreated controls. It is filed as in vivo.
From the text: as §4

SMILES strings stand for the structures.

As for `CC(C)OC(=O)COc1nn(-c2ccccc2F)c(-c2ccc(F)nc2)c1Br` [VII-005], in the assay on LOLRI, the “Pre-emergence action against LOLRI in %” value was 100%. Also, in the assay on VERPE, the “Pre-emergence action against VERPE in %” value is given as 100%. Further, the “Pre-emergence action against MATIN in %” value in the assay with MATIN came out at 100%. Further, the “Pre-emergence action at 320 g/ha against ALOMY in %” value in the assay on ALOMY [1] turned out to be 100%. Moreover, the “Pre-emergence action against ECHGC in %” value in the assay on ECHGC turned out to be 100%. Further, the “Pre-emergence action against AVEFA in %” value in the assay with AVEFA [2] came out at 90%. In addition, the “Pre-emergence action against POLCO in %” value with POLCO [3] came to 100%. Further, the “Post-emergence action at 320 g/ha against ECHCG in %” value in the assay on ECHCG stood at 90%. The “Post-emergence action against VIOTR in %” value with VIOTR [4] is on record as 100%. Also, the “Pre-emergence action at 320 g/ha against HORMU in %” value in the assay with HORMU [5] is recorded as 100%. The “Pre-emergence action against PHBPU in %” value in the assay on PHBPU [6] is reported as 80%. Besides, the “Post-emergence action at 320 g/ha against DIGSA in %” value in the assay with DIGSA [7] is given as 90%. Besides, the “Post-emergence action against ABUTH in %” value in the assay on ABUTH is reported as 80%. Moreover, the “Pre-emergence action against VIOTR in %” value in the assay on VIOTR [8] turned out to be 100%. The “Post-emergence action against POLCO in %” value with POLCO [9] was found to be 80%. For the same molecule, in the assay on AMARE, the “Pre-emergence action against AMARE in %” value stood at 100%. The “Post-emergence action against SETVI in %” value with SETVI [10] was 80%. Besides, the “Post-emergence action against ALOMY” value with ALOMY [11] is given as 100%. In addition, in the assay with HORMU [12], the “Post-emergence action against HORMU in %” value came out at 90%. Also, the “Post-emergence action against AVEFA in %” value in the assay on AVEFA [13] is listed as 100%. Moreover, the “Pre-emergence action at 320 g/ha against STEME in %” value in the assay on STEME is 90%. In the assay on SETVI [14], the “Pre-emergence action against SETVI in %” value amounted to 100%. The “Pre-emergence action against DIGSA in %” value in the assay with DIGSA [15] came to 100%. For the same molecule, in the assay on PHBPU [16], the “Post-emergence action against PHBPU in %” value turned out to be 90%.
